Active and inactive are the calls of the source. No cut-off for these calls is given here.
How the values were obtained:
[1] = system: L6; assay: Induction of glucose uptake in rat L6 cells incubated for 24 hrs by GOD-POD technique; type: functional; parameters: concentration or dose not given beside the values
[2] = system: Rattus norvegicus; assay: Anti-diabetic activity in fructose-treated male Wistar rat assessed as increase in CAT level in liver at 30 mg/kg, po administered for 15 days (reference value: 27.65 +/-1.02 U/min); type: functional; conditions: time 15 day
[3] = system: Rattus norvegicus; assay: Anti-diabetic activity in fructose-treated male Wistar rat assessed as increase in glycogen content in liver at 30 mg/kg, po administered for 15 days; type: functional, organism-based; conditions: time 15.0 day
[4] = Acute toxicity in male Wistar rat assessed as change in body weight at 10 mg/kg, po administered for 15 days; type: organism-based; conditions: in vivo, 360 h, time 15 day
[5] = Acute toxicity in male Wistar rat assessed as body weight gain at 10 mg/kg, po administered for 15 days; type: organism-based; conditions: in vivo, 360 h, time 15 day
[6] = system: Rattus norvegicus; assay: Anti-diabetic activity in fructose-treated male Wistar rat assessed as sinusoidal congestion in liver 30 mg/kg, po administered for 15 days by H and E staining based analysis; type: functional, organism-based; conditions: time 15.0 day
[7] = Drug recovery in rat plasma at 50 mg/kg, po by HPLC analysis; type: ADME, organism-based; conditions: in vivo
[8] = system: Rattus norvegicus; assay: Anti-diabetic activity in fructose-treated male Wistar rat assessed as change in HOMO-IR level at 30 mg/kg, po administered for 15 days; type: functional, organism-based; conditions: time 15.0 day
[9] = system: Rattus norvegicus; assay: Anti-diabetic activity in fructose-treated male Wistar rat assessed as decrease in MDA level in liver at 30 mg/kg, po administered for 15 days (reference value: 294.65 +/-11.78 nM/mg ); type: functional; conditions: time 15 day
[10] = Tmax in male Wistar rat at 30 mg/kg, po measured upto 24 hrs; type: ADME, organism-based; conditions: in vivo
[11] = system: Rattus norvegicus; assay: Anti-diabetic activity in fructose-treated male Wistar rat assessed as decrease in triglycerides level at 30 mg/kg, po administered for 15 days (reference value: 140.03 +/-3.55 mg/dL); type: functional; conditions: time 15 day
[12] = Drug recovery in rat plasma at 100 mg/kg, po by HPLC analysis; type: ADME, organism-based; conditions: in vivo
[13] = AUC (0 to infinity) in male Wistar rat at 30 mg/kg, po measured upto 24 hrs; type: ADME, organism-based; conditions: in vivo
[14] = system: Rattus norvegicus; assay: Anti-diabetic activity in fructose-treated male Wistar rat assessed as increase in GSH level in liver at 30 mg/kg, po administered for 15 days (reference value: 39.98 +/-0.86 nM/mg ); type: functional; conditions: time 15 day
[15] = system: Rattus norvegicus; assay: Anti-diabetic activity in fructose-treated male Wistar rat assessed as decrease in VLDL level at 30 mg/kg, po administered for 15 days (reference value: 28 +/-0.28 mg/dL); type: functional; conditions: time 15 day
[16] = system: Rattus norvegicus; assay: Anti-diabetic activity in fructose-treated male Wistar rat assessed as decrease in SGOT level at 30 mg/kg, po administered for 15 days (reference value: […]); type: functional; conditions: time 15 day
[17] = system: Rattus norvegicus; assay: Anti-diabetic activity in fructose-treated male Wistar rat assessed as decrease in fasting blood glucose level at 30 mg/kg, po administered for 15 days; type: functional, organism-based; conditions: time 15.0 day
[18] = AUC (0 to t) in male Wistar rat at 30 mg/kg, po measured upto 24 hrs; type: ADME, organism-based; conditions: in vivo
[19] = system: Rattus norvegicus; assay: Anti-diabetic activity in fructose-treated male Wistar rat assessed as increase in glycogen content in skeletal muscle at 30 mg/kg, po administered for 15 days; type: functional, organism-based; conditions: time 15.0 day
[20] = target: T1, Peroxisome proliferator-activated receptor gamma (Homo sapiens) (UniProt P37231); assay: Agonist activity at PPARgamma in human HepG2 cells assessed as increase in PPARgamma transcription factor expression by ELISA analysis; type: cell-based; conditions: filed as agonist, dose 6.25-50 µM
T1 sequence (whole entry): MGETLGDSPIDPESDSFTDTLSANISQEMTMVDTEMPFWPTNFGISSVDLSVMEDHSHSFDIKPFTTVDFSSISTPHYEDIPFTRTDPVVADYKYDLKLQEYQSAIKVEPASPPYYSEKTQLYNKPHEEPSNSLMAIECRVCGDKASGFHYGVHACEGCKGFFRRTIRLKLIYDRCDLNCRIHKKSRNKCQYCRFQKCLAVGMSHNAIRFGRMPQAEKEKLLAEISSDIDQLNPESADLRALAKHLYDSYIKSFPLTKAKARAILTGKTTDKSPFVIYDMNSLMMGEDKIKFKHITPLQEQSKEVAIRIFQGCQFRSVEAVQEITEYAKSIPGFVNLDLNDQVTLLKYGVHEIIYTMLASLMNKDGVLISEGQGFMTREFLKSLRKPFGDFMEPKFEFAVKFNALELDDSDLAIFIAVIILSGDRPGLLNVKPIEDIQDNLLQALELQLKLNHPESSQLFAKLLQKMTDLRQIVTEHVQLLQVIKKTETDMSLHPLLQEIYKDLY

[21] = system: Rattus norvegicus; assay: Anti-diabetic activity in fructose-treated male Wistar rat assessed as increase in HDL level at 30 mg/kg, po administered for 15 days (reference value: 25.35 +/-2.03 mg/dL); type: functional; conditions: time 15 day
[22] = system: Rattus norvegicus; assay: Anti-diabetic activity in fructose-treated male Wistar rat assessed as ballooning degeneration in liver 30 mg/kg, po administered for 15 days by H and E staining based analysis; type: functional, organism-based; conditions: time 15.0 day
[23] = system: Rattus norvegicus; assay: Anti-diabetic activity in fructose-treated male Wistar rat assessed as increase in total cholesterol level at 30 mg/kg, po administered for 15 days (reference value: 93.68 +/-1.68 mg/dL); type: functional; conditions: time 15 day
[24] = system: Rattus norvegicus; assay: Anti-diabetic activity in Wistar rat Diaphragm assessed as […] at 30 mg/kg, po administered for 15 days; type: functional, organism-based; conditions: time 15.0 day
[25] = system: Rattus norvegicus; assay: Anti-diabetic activity in fructose-treated male Wistar rat assessed as kupffer cell hyperplasia in liver 30 mg/kg, po administered for 15 days by H and E staining based analysis; type: functional, organism-based; conditions: time 15.0 day
[26] = Cmax in male Wistar rat at 30 mg/kg, po measured upto 24 hrs; type: ADME, organism-based; conditions: in vivo
[27] = Half life in male Wistar rat at 30 mg/kg, po measured upto 24 hrs; type: ADME, organism-based; conditions: in vivo
[28] = system: Rattus norvegicus; assay: Anti-diabetic activity in fructose-treated male Wistar rat assessed as lymphocyte infiltration in liver 30 mg/kg, po administered for 15 days by H and E staining based analysis; type: functional, organism-based; conditions: time 15.0 day
[29] = system: Rattus norvegicus; assay: Anti-diabetic activity in fructose-treated male Wistar rat assessed as decrease in adipocyte count 30 mg/kg, po administered for 15 days by H and E staining based analysis; type: functional, organism-based; conditions: time 15.0 day
[30] = system: Rattus norvegicus; assay: Anti-diabetic activity in fructose-treated male Wistar rat assessed as decrease in insulin level at 30 mg/kg, po administered for 15 days by insulin tolerance test; type: functional, organism-based; conditions: time 15.0 day
[31] = system: Rattus norvegicus; assay: Anti-diabetic activity in fructose-treated male Wistar rat assessed as decrease in SGPT level at 30 mg/kg, po administered for 15 days (reference value: […]); type: functional; conditions: time 15 day
[32] = system: Rattus norvegicus; assay: Anti-diabetic activity in fructose-treated male Wistar rat assessed as increase in SOD level in liver at 30 mg/kg, po administered for 15 days (reference value: 13.25 +/-1.35 U/ml); type: functional; conditions: time 15 day
[33] = system: Rattus norvegicus; assay: Anti-diabetic activity in fructose-treated male Wistar rat assessed as steatosis in liver 30 mg/kg, po administered for 15 days by H and E staining based analysis; type: functional, organism-based; conditions: time 15.0 day
[34] = Retention time of the compound by HPLC analysis; type: physicochemical
[35] = Drug recovery in rat plasma at 150 mg/kg, po by HPLC analysis; type: ADME, organism-based; conditions: in vivo
[36] = system: Rattus norvegicus; assay: Anti-diabetic activity in fructose-treated male Wistar rat assessed as increase in LDL level at 30 mg/kg, po administered for 15 days (reference value: 40.32 +/-1.08 mg/dL); type: functional; conditions: time 15 day
[37] = target: T1, Peroxisome proliferator-activated receptor gamma (Homo sapiens); assay: Agonist activity at Gal4-fused human PPARgamma transfected in African green monkey CV-1 cells assessed as receptor transactivation incubated for 24 hrs by luciferase based assay relative to control; type: cell-based
[38] = system: Rattus norvegicus; assay: Anti-diabetic activity in fructose-treated male Wistar rat assessed as increase in HOMO-IR level at 30 mg/kg, po administered for 15 days; type: functional, organism-based; conditions: time 15.0 day

## COc1cc(/C=C2\SC(=O)N(CC(=O)N3CCC[C@@H]3C#N)C2=O)cc(OC)c1OC
[1]
  Activity: 69.74%

## N#C[C@H]1CCCN1C(=O)CN1C(=O)S/C(=C\c2ccccc2O)C1=O
[1]
  Activity: 72.86%

## N#C[C@H]1CCCN1C(=O)CN1C(=O)S/C(=C\c2ccc(O)cc2)C1=O
[2]
  Activity: 52.36 U/min
[3]
  Activity: Active
[4]
  Activity: Non-toxic
[5]
  Activity: Non-toxic
[6]
  Activity: Active
[7]
  Drug recovery: 97.1%
[8]
  Activity: Active
[9]
  Activity: 197.32 nM/mg
[10]
  Tmax: 2.21 h
[11]
  Activity: 76.18 mg/dL
[12]
  Drug recovery: 101%
[13]
  AUC(0-inf): 6620 ng·h/mL
[14]
  Activity: 61.35 nM/mg
[15]
  Activity: 15.23 mg/dL
[1]
  Activity: 79.29%
[16]
  Activity: 41.32 U/L
[17]
  Activity: Active
[18]
  AUC(0-t) at 24 h: 5980 ng·h/mL
[19]
  Activity: Active
[20]
  Activity: Dose-dependent-effect
[21]
  Activity: 53.25 mg/dL
[22]
  Activity: Active
[23]
  Activity: 114.79 mg/dL
[24]
  Activity: Active
[25]
  Activity: Active
[26]
  Cmax: 1030 ng/mL
[27]
  half-life: 4.21 h
[28]
  Activity: Active
[29]
  Activity: Active
[30]
  Activity: Active
[31]
  Activity: 37.12 U/L
[32]
  Activity: 24.68 U/ml
[33]
  Activity: Active
[34]
  Retention_time: 4.4 min
[35]
  Drug recovery: 96.1%
[36]
  Activity: 47.8 mg/dL

## O=C1NC(=O)C(Cc2ccc(OCc3cccc(Br)c3)cc2)S1 (stereo unspecified)
[37]
  Activity: 21.2%

## CN(C)c1ccc(/C=C2\SC(=O)N(CC(=O)N3CCC[C@@H]3C#N)C2=O)cc1
[1]
  Activity: 64.18%

## Cc1ccc(/C=C2\SC(=O)N(CC(=O)N3CCC[C@@H]3C#N)C2=O)cc1
[1]
  Activity: 64.57%

## N#C[C@H]1CCCN1C(=O)CN1C(=O)S/C(=C\c2ccc(F)cc2)C1=O
[2]
  Activity: 48.65 U/min
[3]
  Activity: Active
[4]
  Activity: Non-toxic
[5]
  Activity: Non-toxic
[6]
  Activity: Active
[7]
  Drug recovery: 99.96%
[9]
  Activity: 224.65 nM/mg
[10]
  Tmax: 2 h
[11]
  Activity: 86.15 mg/dL
[12]
  Drug recovery: 99.58%
[13]
  AUC(0-inf): 6240 ng·h/mL
[14]
  Activity: 58.63 nM/mg
[15]
  Activity: 17.23 mg/dL
[1]
  Activity: 74.58%
[16]
  Activity: 46.36 U/L
[38]
  Activity: Active
[17]
  Activity: Active
[18]
  AUC(0-t) at 24 h: 5620 ng·h/mL
[19]
  Activity: Active
[20]
  Activity: Dose-dependent-effect
[21]
  Activity: 51.39 mg/dL
[22]
  Activity: Active
[23]
  Activity: 112.3 mg/dL
[24]
  Activity: Active
[25]
  Activity: Active
[26]
  Cmax: 926 ng/mL
[27]
  half-life: 3.96 h
[28]
  Activity: Active
[29]
  Activity: Active
[30]
  Activity: Active
[31]
  Activity: 39.72 U/L
[32]
  Activity: 20.36 U/ml
[33]
  Activity: Active
[34]
  Retention_time: 6.7 min
[35]
  Drug recovery: 98.36%
[36]
  Activity: 42.74 mg/dL

## N#C[C@H]1CCCN1C(=O)CN1C(=O)S/C(=C\c2ccco2)C1=O
[1]
  Activity: 57.4%

## N#C[C@H]1CCCN1C(=O)CN1C(=O)S/C(=C\c2ccccc2)C1=O
[1]
  Activity: 63.23%

## COc1ccc(/C=C2\SC(=O)N(CC(=O)N3CCC[C@@H]3C#N)C2=O)cc1
[1]
  Activity: 58.66%

## COc1ccc(/C=C2\SC(=O)N(CC(=O)N3CCC[C@@H]3C#N)C2=O)cc1OC
[1]
  Activity: 64.56%

Source: ChEMBL document CHEMBL6074653, “Reversal of insulin resistance to combat type 2 diabetes mellitus by newer thiazolidinedione's in fructose induced insulin resistant rats” (Eur J Med Chem, 2024)
